Experimental data taken from ChEMBL document CHEMBL4308841, “Synthesis, in vitro antiproliferative activity, and kinase inhibitory effects of pyrazole-containing diarylureas and diarylamides” (Eur J Med Chem, 2018).

Columns and labels:
[1] = system: NCI/ADR-RES; test: Growth inhibition of human NCI/ADR-RES cells assessed as cell growth at 100 uM incubated for 48 hrs by sulforhodamine B assay relative to control; type: functional; conditions: read-out: Activity
[2] = system: MCF7; test: Growth inhibition of human MCF7 cells assessed as cell growth at 1 uM incubated for 48 hrs by sulforhodamine B assay relative to control; type: functional; conditions: MCF7, 48 h, read-out: Activity
[3] = system: HT-29; test: Growth inhibition of human HT-29 cells assessed as cell growth at 0.01 uM incubated for 48 hrs by sulforhodamine B assay relative to control; type: functional; conditions: HT-29, 48 h, read-out: Activity
[4] = system: SK-MEL-28; test: Growth inhibition of human SK-MEL-28 cells incubated for 48 hrs by sulforhodamine B assay; type: functional, cell-based; conditions: SK-MEL-28, 48 h
[5] = system: M14; test: Growth inhibition of human M14 cells assessed as cell growth at 1 uM incubated for 48 hrs by sulforhodamine B assay relative to control; type: functional; conditions: M14, 48 h, read-out: Activity
[6] = system: MDA-MB-231; test: Growth inhibition of human MDA-MB-231 cells incubated for 48 hrs by sulforhodamine B assay; type: functional, cell-based; conditions: MDA-MB-231, 48 h
[7] = system: MOLT-4; test: Growth inhibition of human MOLT4 cells assessed as cell growth at 0.1 uM incubated for 48 hrs by sulforhodamine B assay relative to control; type: functional; conditions: MOLT-4, 48 h, read-out: Activity
[8] = system: A549; test: Growth inhibition of human A549/ATCC cells incubated for 48 hrs by sulforhodamine B assay; type: functional, cell-based; conditions: A549, 48 h
[9] = system: PC-3; test: Growth inhibition of human PC3 cells assessed as cell growth at 1 uM incubated for 48 hrs by sulforhodamine B assay relative to control; type: functional; conditions: PC-3, 48 h, read-out: Activity
[10] = system: HL-60(TB); test: Growth inhibition of human HL-60(TB) cells assessed as cell growth at 1 uM incubated for 48 hrs by sulforhodamine B assay relative to control; type: functional; conditions: HL-60, 48 h, read-out: Activity
[11] = system: KM12; test: Growth inhibition of human KM12 cells incubated for 48 hrs by sulforhodamine B assay; type: functional, cell-based; conditions: KM12, 48 h
[12] = system: IGROV-1; test: Growth inhibition of human IGROV1 cells assessed as cell growth at 0.1 uM incubated for 48 hrs by sulforhodamine B assay relative to control; type: functional; conditions: IGROV-1, 48 h, read-out: Activity
[13] = system: HL-60(TB); test: Growth inhibition of human HL-60(TB) cells assessed as cell growth at 0.01 uM incubated for 48 hrs by sulforhodamine B assay relative to control; type: functional; conditions: HL-60, 48 h, read-out: Activity
[14] = system: HT-29; test: Growth inhibition of human HT-29 cells assessed as cell growth at 1 uM incubated for 48 hrs by sulforhodamine B assay relative to control; type: functional; conditions: HT-29, 48 h, read-out: Activity
[15] = system: SNB-75; test: Growth inhibition of human SNB75 cells incubated for 48 hrs by sulforhodamine B assay; type: functional, cell-based; conditions: SNB-75, 48 h
[16] = system: SR; test: Growth inhibition of human SR cells assessed as cell growth at 100 uM incubated for 48 hrs by sulforhodamine B assay relative to control; type: functional; conditions: read-out: Activity
[17] = system: K562; test: Growth inhibition of human K562 cells assessed as cell growth at 0.01 uM incubated for 48 hrs by sulforhodamine B assay relative to control; type: functional; conditions: K562, 48 h, read-out: Activity
[18] = system: UACC-257; test: Growth inhibition of human UACC257 cells incubated for 48 hrs by sulforhodamine B assay; type: functional, cell-based; conditions: UACC-257, 48 h
[19] = system: T47D; test: Growth inhibition of human T47D cells incubated for 48 hrs by sulforhodamine B assay; type: functional, cell-based
[20] = system: RXF 393; test: Growth inhibition of human RXF393 cells assessed as cell growth at 0.01 uM incubated for 48 hrs by sulforhodamine B assay relative to control; type: functional; conditions: RXF 393, 48 h, read-out: Activity
[21] = system: U-251; test: Growth inhibition of human U251 cells assessed as cell growth at 0.1 uM incubated for 48 hrs by sulforhodamine B assay relative to control; type: functional; conditions: U-251, 48 h, read-out: Activity
[22] = system: UO-31; test: Growth inhibition of human UO31 cells incubated for 48 hrs by sulforhodamine B assay; type: functional, cell-based; conditions: UO-31, 48 h
[23] = system: MDA-MB-468; test: Growth inhibition of human MDA-MB-468 cells assessed as cell growth at 1 uM incubated for 48 hrs by sulforhodamine B assay relative to control; type: functional; conditions: MDA-MB-468, 48 h, read-out: Activity
[24] = system: CAKI-1; test: Growth inhibition of human Caki1 cells assessed as cell growth at 0.01 uM incubated for 48 hrs by sulforhodamine B assay relative to control; type: functional; conditions: CAKI-1, 48 h, read-out: Activity
[25] = system: HCT-116; test: Growth inhibition of human HCT116 cells assessed as cell growth at 100 uM incubated for 48 hrs by sulforhodamine B assay relative to control; type: functional; conditions: HCT-116, 48 h, read-out: Activity
[26] = system: MOLT-4; test: Growth inhibition of human MOLT4 cells assessed as cell growth at 100 uM incubated for 48 hrs by sulforhodamine B assay relative to control; type: functional; conditions: MOLT-4, 48 h, read-out: Activity
[27] = system: Malme-3M; test: Growth inhibition of human MALME-3M cells assessed as cell growth at 0.01 uM incubated for 48 hrs by sulforhodamine B assay relative to control; type: functional; conditions: read-out: Activity
[28] = system: CCRF-CEM; test: Growth inhibition of human CCRF-CEM cells assessed as cell growth at 100 uM incubated for 48 hrs by sulforhodamine B assay relative to control; type: functional; conditions: read-out: Activity
[29] = read-out: LC50 (the source's name)
[30] = read-out: pLC50 (the source's name) (converted)

Structure (SMILES): O=C(Nc1cccc(-n2cc(-c3ccncc3)c(-c3cc(O)cc(Cl)c3)n2)c1)Nc1ccc(Cl)c(Cl)c1
- growth at 100 µM [1]: 2%
- growth at 1 µM [2]: 91%
- growth at 0.01 µM [3]: 91%
- GI50 ([4]; read-out: GI50): 2.14 µM
- CC50 [4, 29]: 4.2 µM
- TGI ([4]; read-out: TGI): 55.5 µM
- GI50 ([4]; read-out: pGI50 (converted)): 2.14 µM
- CC50 [4, 30]: 41.7 µM
- TGI ([4]; read-out: pTGI (converted)): 5.5 µM
- growth at 1 µM [5]: 72%
- GI50 ([6]; read-out: GI50): 1.01 µM
- CC50 [6, 29]: > 100 µM
- TGI ([6]; read-out: TGI): 77 µM
- GI50 ([6]; read-out: pGI50 (converted)): 1 µM
- CC50 [6, 30]: > 100 µM
- TGI ([6]; read-out: pTGI (converted)): 7.76 µM
- growth at 0.1 µM [7]: 94%
- IC50 [8]: 1.96 µM
- GI50 ([8]; read-out: GI50): 1.96 µM
- CC50 [8, 29]: > 100 µM
- TGI ([8]; read-out: TGI): 75.4 µM
- GI50 ([8]; read-out: pGI50 (converted)): 1.95 µM
- CC50 [8, 30]: > 100 µM
- TGI ([8]; read-out: pTGI (converted)): 7.59 µM
- growth at 1 µM [9]: 72%
- growth at 1 µM [10]: 106%
- GI50 ([11]; read-out: GI50): 1.5 µM
- CC50 [11, 29]: 9 µM
- TGI ([11]; read-out: TGI): 36.9 µM
- GI50 ([11]; read-out: pGI50 (converted)): 1.51 µM
- CC50 [11, 30]: 9.12 µM
- TGI ([11]; read-out: pTGI (converted)): 3.72 µM
- growth at 0.1 µM [12]: 101%
- growth at 0.01 µM [13]: 93%
- growth at 1 µM [14]: 96%
- GI50 ([15]; read-out: GI50): 1.38 µM
- CC50 [15, 29]: > 100 µM
- TGI ([15]; read-out: TGI): 48.2 µM
- GI50 ([15]; read-out: pGI50 (converted)): 1.38 µM
- CC50 [15, 30]: > 100 µM
- TGI ([15]; read-out: pTGI (converted)): 4.79 µM
- growth at 100 µM [16]: -30%
- growth at 0.01 µM [17]: 107%
- GI50 ([18]; read-out: GI50): 1.96 µM
- CC50 [18, 29]: 9.5 µM
- TGI ([18]; read-out: TGI): 43 µM
- GI50 ([18]; read-out: pGI50 (converted)): 1.95 µM
- CC50 [18, 30]: 9.55 µM
- TGI ([18]; read-out: pTGI (converted)): 4.27 µM
- GI50 ([19]; read-out: GI50): 2.32 µM
- CC50 [19, 29]: > 100 µM
- TGI ([19]; read-out: TGI): 61.7 µM
- GI50 ([19]; read-out: pGI50 (converted)): 2.4 µM
- CC50 [19, 30]: > 100 µM
- TGI ([19]; read-out: pTGI (converted)): 6.17 µM
- growth at 0.01 µM [20]: 93%
- growth at 0.1 µM [21]: 93%
- IC50 [22]: 1.91 µM
- GI50 ([22]; read-out: GI50): 1.91 µM
- CC50 [22, 29]: > 100 µM
- TGI ([22]; read-out: TGI): 65.1 µM
- GI50 ([22]; read-out: pGI50 (converted)): 1.91 µM
- CC50 [22, 30]: > 100 µM
- TGI ([22]; read-out: pTGI (converted)): 6.46 µM
- growth at 1 µM [23]: 59%
- growth at 0.01 µM [24]: 100%
- growth at 100 µM [25]: -61%
- growth at 100 µM [26]: -10%
- growth at 0.01 µM [27]: 57%

Structure (SMILES): O=C(Nc1cccc(-n2cc(-c3ccncc3)c(-c3cc(O)cc(Cl)c3)n2)c1)c1cc(C(F)(F)F)cc(C(F)(F)F)c1
- growth at 100 µM [1]: 9%
- growth at 1 µM [2]: 54%
- growth at 0.01 µM [3]: 96%
- GI50 ([4]; read-out: GI50): 4.71 µM
- CC50 [4, 29]: > 100 µM
- TGI ([4]; read-out: TGI): 85.3 µM
- GI50 ([4]; read-out: pGI50 (converted)): 4.68 µM
- CC50 [4, 30]: > 100 µM
- TGI ([4]; read-out: pTGI (converted)): 85.1 µM
- growth at 1 µM [5]: 85%
- GI50 ([6]; read-out: GI50): 1.42 µM
- CC50 [6, 29]: 77.8 µM
- TGI ([6]; read-out: TGI): 33.2 µM
- GI50 ([6]; read-out: pGI50 (converted)): 1.41 µM
- CC50 [6, 30]: 7.76 µM
- TGI ([6]; read-out: pTGI (converted)): 3.31 µM
- growth at 0.1 µM [7]: 89%
- IC50 [8]: 2.62 µM
- GI50 ([8]; read-out: GI50): 2.52 µM
- CC50 [8, 29]: > 100 µM
- TGI ([8]; read-out: TGI): > 100 µM
- GI50 ([8]; read-out: pGI50 (converted)): 2.63 µM
- CC50 [8, 30]: > 100 µM
- TGI ([8]; read-out: pTGI (converted)): > 100 µM
- growth at 1 µM [9]: 78%
- GI50 ([11]; read-out: GI50): 1.96 µM
- CC50 [11, 29]: > 100 µM
- GI50 ([11]; read-out: pGI50 (converted)): 1.95 µM
- CC50 [11, 30]: > 100 µM
- growth at 0.1 µM [12]: 98%
- growth at 1 µM [14]: 79%
- GI50 ([15]; read-out: GI50): 2.3 µM
- CC50 [15, 29]: > 100 µM
- TGI ([15]; read-out: TGI): > 100 µM
- GI50 ([15]; read-out: pGI50 (converted)): 2.82 µM
- CC50 [15, 30]: > 100 µM
- TGI ([15]; read-out: pTGI (converted)): > 100 µM
- growth at 100 µM [16]: -18%
- growth at 0.01 µM [17]: 99%
- GI50 ([18]; read-out: GI50): 4.23 µM
- CC50 [18, 29]: > 100 µM
- TGI ([18]; read-out: TGI): 51.2 µM
- GI50 ([18]; read-out: pGI50 (converted)): 4.27 µM
- CC50 [18, 30]: > 100 µM
- TGI ([18]; read-out: pTGI (converted)): 51.3 µM
- GI50 ([19]; read-out: GI50): 2.99 µM
- CC50 [19, 29]: > 100 µM
- TGI ([19]; read-out: TGI): 94.6 µM
- GI50 ([19]; read-out: pGI50 (converted)): 3.02 µM
- CC50 [19, 30]: > 100 µM
- TGI ([19]; read-out: pTGI (converted)): 95.5 µM
- growth at 0.01 µM [20]: 96%
- growth at 0.1 µM [21]: 93%
- IC50 [22]: 2.5 µM
- GI50 ([22]; read-out: GI50): 2.5 µM
- CC50 [22, 29]: > 100 µM
- TGI ([22]; read-out: TGI): > 100 µM
- GI50 ([22]; read-out: pGI50 (converted)): 2.51 µM
- CC50 [22, 30]: > 100 µM
- TGI ([22]; read-out: pTGI (converted)): > 100 µM
- growth at 1 µM [23]: 52%
- growth at 100 µM [28]: 1%
- growth at 0.01 µM [24]: 97%
- growth at 100 µM [25]: 5%
- growth at 100 µM [26]: 3%
- growth at 0.01 µM [27]: 97%
